Counter-ions that a name gives are not always drawn.
Legend:
activated human C1 = assay: Test, Code 026 (C1 inhibitor); format: biochemical; conditions: in vitro; two-fold serial dilution assay; higher well number indicates higher activity
Description: (§1) An active inhibitor protects C2 from C1 and C4; (ii) Test, Code 035 (C3-C9 inhibitor)--This test determines the ability of the late components of human complement (C3-C9) to lyse EAC 142 in the presence of appropriate dilutions of the test compound. An active inhibitor protects EAC 142 from lysis by human C3-C9; (iii) Test, Code 036 (C-Shunt inhibitor)--In this test human erythrocytes rendered fragile are lysed in autologous serum via the shunt pathway activated by cobra venom factor in the presence of appropriate dilutions of the test compound. Inhibition of the shunt pathway results in failure of lysis; (iv) Forssman Vasculitis Test--Here, the well known complement dependent lesion, Forssman vasculitis, is produced in guinea pigs by intradermal injection of rabbit anti-Forssman antiserum. […]
(§2) With reference to Table I, guinea pigs weighing about 300 g were dosed intravenously (i.v.) or intraperitoneally (i.p.) with 200 mg/kg of the test compound dissolved in saline and adjusted to pH 7-8. […] Percent inhibition was calculated by comparison with simultaneous controls. […]

[1] = test system: shunt pathway activated by cobra venom factor; assay: Test, Code 036 (C-Shunt inhibitor), lysis of human erythrocytes in autologous serum; format: cell-based; conditions: in vitro; two-fold serial dilution assay; higher well number indicates higher activity
Description: as §1, §2

[2] = test system: whole complement in serum; assay: Complement Level Reduction Test in dosed guinea pigs (capillary tube assay); format: in vivo; conditions: guinea pig, intraperitoneal, 200 mg/kg
[3] = test system: late components of human complement (C3-C9); assay: Test, Code 035 (C3-C9 inhibitor), lysis of EAC 142; format: cell-based; conditions: in vitro; two-fold serial dilution assay; higher well number indicates higher activity
Description: as §1, §2

complement system = conditions: reported in cited literature; cited from earlier work
[4] = test system: hereditary angioneurotic edema; conditions: The New England Journal of Medicine, 286, 808-812 (1972); cited from earlier work

**Q.** What does the source list for `Cc1c(NC(=S)Nc2cc(S(=O)(=O)[O-])cc3cc(S(=O)(=O)[O-])cc(S(=O)(=O)[O-])c23)cc(S(=O)(=O)[O-])cc1NC(=S)Nc1cc(S(=O)(=O)[O-])cc2cc(S(=O)(=O)[O-])cc(S(=O)(=O)[O-])c12.[Na+].[Na+].[Na+].[Na+].[Na+].[Na+].[Na+]` [8,8'-[(2-methyl-5-sulfo-1,3-phenylene)bis(2-thioureylene)]di-1,3,6-naphthalenetrisulfonic acid heptasodium salt]?
**A.** C1 026* Wells (activated human C1): +7 Wells; Shunt Inhibition 036* Wells [1]: N; % change in serum complement level ([2]; 30 minutes): -40%; % change in serum complement level ([2]; 60 minutes): -40%; % change in serum complement level ([2]; 120 minutes): -51%; C-Late 035* Wells [3]: N

**Q.** Which results are given for `Cc1ccc(C(=O)Nc2ccc(S(=O)(=O)O)c3cc(S(=O)(=O)O)cc(S(=O)(=O)O)c23)cc1NC(=O)c1cccc(NC(=O)Nc2cccc(C(=O)Nc3cc(C(=O)Nc4ccc(S(=O)(=O)O)c5cc(S(=O)(=O)O)cc(S(=O)(=O)O)c45)ccc3C)c2)c1` [Suramin]?
**A.** anticomplementary effect / inhibition of the complement system (complement system): competitive inhibitor of the complement system; use in treatment of hereditary angioneurotic edema [4]: used with success

**Q.** With `Nc1ccc2cc(S(=O)(=O)O)cc(O)c2c1N=Nc1ccc(NC(=O)Nc2ccc(N=Nc3c(N)ccc4cc(S(=O)(=O)O)cc(O)c34)c(S(=O)(=O)O)c2)cc1S(=O)(=O)O` [chlorazol fast pink, 3,3'-ureylenebis-[6-(2-amino-8-hydroxy-6-sulfo-1-naphthylazo)]benzenesulfonic acid, tetrasodium salt] as the compound, how does the “anticomplementary effect / inhibition of the complement system” value (complement system) read?
**A.** Its value is “anticomplementary effect”.

**Q.** For `NCCCCCC(=O)O` [epsilon-aminocaproic acid], which “use in treatment of hereditary angioneurotic edema” value [4] is on record?
**A.** The value was “used with success”.

**Q.** For `NC[C@H]1CC[C@H](C(=O)O)CC1` [tranexamic acid], which “use in treatment of hereditary angioneurotic edema” value [4] is on record?
**A.** Its value is “used with success”.

**Q.** Which “anticomplementary effect / inhibition of the complement system” value (complement system) does the source give for heparin here?
**A.** Its value is “anticomplementary effect”.

— US4120893A, “Anionic naphthalene thioureido toluenesulfonic acids” (American Cyanamid Company, priority 1977, dated 1978)
